According to patent EP4582423A1, “NOVEL TRICYCLIC DERIVATIVE COMPOUND AND USES THEREOF” (Hanmi Pharm. Co., Ltd., priority 2022, dated 2024):

What follows are compounds tested on HCT116 MTAP-/- cells (assay: Cell growth inhibition test (SRB staining)). Settings: HCT116 MTAP-/- cells, 0.64 nM - 2,000 nM, 6 dose points, 6 days, SRB staining, absorbance at 540 nm; read-out: HCT116 MTAP-/- cell growth inhibition (GI50).
Assay type: cell-based
Protocol: The synthetic compounds above were tested for cell growth inhibition against HCT116 cells.
HCT116 MTAP-/- (homozygous knockout of MTAP gene in HCT116 MTAP-WT cells by CRISPER/Cas9 method) cells were maintained in RPMI1640 medium containing 10 % FBS and 1 % penicillin-streptomycin. Approximately 5×10^2 cells were seeded in a 96-well plate and treated with a test compound. (0.64 nM - 2,000 nM, 6 dose points for HCT116 MTAP-/- cells for 5x and 6 days) cell growth was measured by SRB staining and absorbance was detected at 540 nm on a Synergy™ NEO microplate reader. The 50 % growth inhibition value (GI50) of the cell line was calculated using GraphPad Prism V9 software.

For “7-chloro-2-(4-methoxyphenyl)-1-methyl-5-(o-tolyl)-1,5-dihydro-4H-imidazo[4,5-c]quinolin-4-one [Compound 10]”, the GI50 was under 100 nM.

Same assay, conditions: Homo sapiens, HCT-116, 144 h; HCT116 MTAP-/- cells, 0.64 nM - 2,000 nM, 6 dose points, 6 days, SRB staining, absorbance at 540 nm; read-out: HCT116 MTAP-/- cell growth inhibition (GI50)

Compared with `COc1ccc(Cc2nc3c(=O)n(-c4ccccc4)c4cc(Cl)ccc4c3n2C)cc1OC` [Compound 8, 7-chloro-2-(3,4-dimethoxybenzyl)-1-methyl-5-phenyl-1,5-dihydro-4H-imidazo[4,5-c]quinolin-4-one], `COc1cccc(Cc2nc3c(=O)n(-c4ccccc4)c4cc(Cl)ccc4c3n2C)c1` [Compound 4, 7-chloro-2-(3-methoxybenzyl)-1-methyl-5-phenyl-1,5-dihydro-4H-imidazo[4,5-c]quinolin-4-one] is lower in GI50: 100 to 500 nM for the first, under 100 nM for the second.

First: COc1ccc(Cc2nc3c(=O)n(-c4cccnc4C)c4cc(O)ccc4c3n2C)cc1 [Compound 43, 7-Hydroxy-2-(4-methoxybenzyl)-1-methyl-5-(2-methylpyridin-3-yl)-1,5-dihydro-4H-imidazo[4,5-c]quinolin-4-one]
Second: COc1ccc(Cc2nc3c(=O)n(-c4cccnc4C)c4cc(C)ccc4c3n2C)cc1 [Compound 49, 2-(4-methoxybenzyl)-1,7-dimethyl-5-(2-methylpyridin-3-yl)-1,5-dihydro-4H-imidazo[4,5-c]quinolin-4-one]
The GI50 of the first is higher: over 1000 nM for the first, 100 to 500 nM for the second.

`Cc1ncccc1-n1c(=O)c2nc(Cc3ccc(OC(F)F)cc3)n(C)c2c2ccc(C3CC3)nc21` [Compound 66, 7-cyclopropyl-2-(4-(difluoromethoxy)benzyl)-1-methyl-5-(2-methylpyridin-3-yl)-1,5-dihydro-4H-imidazo[4,5-c][1,8]naphthyridin-4-one] and `Cc1ncccc1-n1c(=O)c2nc(Cc3ccc(OC(F)F)cc3)n(C)c2c2ccc(Cl)cc21` [Compound 33, 7-chloro-2-(4-(difluoromethoxy)benzyl)-1-methyl-5-(2-methylpyridin-3-yl)-1,5-dihydro-4H-imidazo[4,5-c]quinolin-4-one] cannot be ordered by GI50: under 100 nM for the first, under 100 nM for the second.

Compared with `Cn1c(Cc2ccc(O)cc2)nc2c(=O)n(-c3ccccc3)c3cc(Cl)ccc3c21` [Compound 3, 7-chloro-2-(4-hydroxybenzyl)-1-methyl-5-phenyl-1,5-dihydro-4H-imidazo[4,5-c]quinolin-4-one], `COc1ccc(Cc2nc3c(=O)n(-c4ccccc4)c4cc(Cl)ccc4c3n2C)cc1` [Compound 2, 7-chloro-2-(4-methoxybenzyl)-1-methyl-5-phenyl-1,5-dihydro-4H-imidazo[4,5-c]quinolin-4-one] is lower in GI50: over 1000 nM for the first, under 100 nM for the second.

First: COc1ccc(Cc2nc3c(=O)n(-c4cccnc4C)c4cc(N5CCCC5)ccc4c3n2C)cc1 [Compound 50, 2-(4-methoxybenzyl)-1-methyl-5-(2-methylpyridin-3-yl)-7-(pyrrolidin-1-yl)-1,5-dihydro-4H-imidazo[4,5-c]quinolin-4-one]
Second: COc1ccc(Cc2nc3c(=O)n(-c4cccnc4C)c4cc(N)ccc4c3n2C)cc1 [Compound 52, 7-amino-2-(4-methoxybenzyl)-1-methyl-5-(2-methylpyridin-3-yl)-1,5-dihydro-4H-imidazo[4,5-c]quinolin-4-one]
The GI50 of the first is higher: over 1000 nM for the first, 500 to 1000 nM for the second.

Compared with `O=c1c2nc(Cc3ccccc3)[nH]c2c2ccc(Cl)cc2n1-c1ccccc1` [Compound 11, 2-benzyl-7-chloro-5-phenyl-1,5-dihydro-4H-imidazo[4,5-c]quinolin-4-one], `Cn1c(Cc2ccncc2)nc2c(=O)n(-c3ccccc3)c3cc(Cl)ccc3c21` [Compound 7, 7-chloro-1-methyl-5-phenyl-2-(pyridin-4-ylmethyl)-1,5-dihydro-4H-imidazo[4,5-c]quinolin-4-one] is higher in GI50: 500 to 1000 nM for the first, over 1000 nM for the second.

`Cc1ncccc1-n1c(=O)c2nc(Cc3ccc4c(c3)OCO4)n(C)c2c2ccc(Cl)cc21` [Compound 29, 2-(benzo[d][1,3]dioxol-5-ylmethyl)-7-chloro-1-methyl-5-(2-methylpyridin-3-yl)-1,5-dihydro-4H-imidazo[4,5-c]quinolin-4-one] and `Cc1ncccc1-n1c(=O)c2nc(Sc3ccc4c(c3)OCO4)n(C)c2c2ccc(Cl)cc21` [Compound 38, 2-(benzo[d][1,3]dioxol-5-ylthio)-7-chloro-1-methyl-5-(2-methylpyridin-3-yl)-1,5-dihydro-4H-imidazo[4,5-c]quinolin-4-one] cannot be ordered by GI50: under 100 nM for the first, under 100 nM for the second.

`COc1ccc(Cc2nc3c(=O)n(-c4cccnc4C)c4nc(C(F)(F)F)ccc4c3n2C)cc1` [Compound 57, 2-(4-methoxybenzyl)-1-methyl-5-(2-methylpyridin-3-yl)-7-(trifluoromethyl)-1,5-dihydro-4H-imidazo[4,5-c][1,8]naphthyridin-4-one] and `COc1ccc(Cc2nc3c(=O)n(-c4cccnc4C)c4cc(C(F)(F)F)ccc4c3n2C)cc1` [Compound 27, 2-(4-methoxybenzyl)-1-methyl-5-(2-methylpyridin-3-yl)-7-(trifluoromethyl)-1,5-dihydro-4H-imidazo[4,5-c]quinolin-4-one] cannot be ordered by GI50: under 100 nM for the first, under 100 nM for the second.

Compared with `COc1ccc(S(=O)(=O)c2nc3c(=O)n(-c4ccccc4)c4cc(Cl)ccc4c3n2C)cc1` [Compound 19, 7-chloro-2-((4-methoxyphenyl)sulfonyl)-1-methyl-5-phenyl-1,5-dihydro-4H-imidazo[4,5-c]quinolin-4-one], `COc1ccc(Nc2nc3c(=O)n(-c4ccccc4)c4cc(Cl)ccc4c3n2C)cc1` [Compound 40, 7-chloro-2-((4-methoxyphenyl)amino)-1-methyl-5-phenyl-1,5-dihydro-4H-imidazo[4,5-c]quinolin-4-one] is higher in GI50: 500 to 1000 nM for the first, over 1000 nM for the second.

Going from `Cn1c(Cn2ccnc2)nc2c(=O)n(-c3ccccc3)c3cc(Cl)ccc3c21` [Compound 12, 2-((1H-imidazol-1-yl)methyl)-7-chloro-1-methyl-5-phenyl-1,5-dihydro-4H-imidazo[4,5-c]quinolin-4-one] to `COc1ccc(Cc2nc3c(=O)n(-c4cccnc4)c4cc(Cl)ccc4c3n2C)cc1` [Compound 31, 7-chloro-2-(4-methoxybenzyl)-1-methyl-5-(pyridin-3-yl)-1,5-dihydro-4H-imidazo[4,5-c]quinolin-4-one], the GI50 falls from over 1000 nM to under 100 nM.

`COc1ccc(Cc2nc3c(=O)n(-c4cccnc4C(F)(F)F)c4cc(Cl)ccc4c3n2C)cc1` [Compound 23, 7-chloro-2-(4-methoxybenzyl)-1-methyl-5-(2-(trifluoromethyl)pyridin-3-yl)-1,5-dihydro-4H-imidazo[4,5-c]quinolin-4-one] and `COc1ccc(Cc2nc3c(=O)n(-c4ccccc4C(F)(F)F)c4cc(Cl)ccc4c3n2C)cc1` [Compound 25, 7-chloro-2-(4-methoxybenzyl)-1-methyl-5-(2-(trifluoromethyl)phenyl)-1,5-dihydro-4H-imidazo[4,5-c]quinolin-4-one] fall in the same range of GI50: 100 to 500 nM for the first, 100 to 500 nM for the second.

`C#Cc1ccc2c3c(nc(Cc4ccc(OC)cc4)n3C)c(=O)n(-c3cccnc3C)c2c1` [Compound 47, 7-ethynyl-2-(4-methoxybenzyl)-1-methyl-5-(2-methylpyridin-3-yl)-1,5-dihydro-4H-imidazo[4,5-c]quinolin-4-one] and `COc1ccc(Cc2nc3c(=O)n(-c4cccnc4C)c4cc(C5CC5)ccc4c3n2C)cc1` [Compound 46, 7-Cyclopropyl-2-(4-methoxybenzyl)-1-methyl-5-(2-methylpyridin-3-yl)-1,5-dihydro-4H-imidazo[4,5-c]quinolin-4-one] cannot be ordered by GI50: under 100 nM for the first, under 100 nM for the second.

`Cc1ncccc1-n1c(=O)c2nc(Sc3ccc(F)cc3)n(C)c2c2ccc(Cl)cc21` [Compound 36, 7-chloro-2-((4-fluorophenyl)thio)-1-methyl-5-(2-methylpyridin-3-yl)-1,5-dihydro-4H-imidazo[4,5-c]quinolin-4-one] and `Cc1ncccc1-n1c(=O)c2nc(Sc3ccc(F)c(F)c3)n(C)c2c2ccc(Cl)cc21` [Compound 37, 7-chloro-2-((3,4-difluorophenyl)thio)-1-methyl-5-(2-methylpyridin-3-yl)-1,5-dihydro-4H-imidazo[4,5-c]quinolin-4-one] cannot be ordered by GI50: under 100 nM for the first, under 100 nM for the second.

First: COc1ccc(Oc2nc3c(=O)n(-c4ccccc4)c4cc(Cl)ccc4c3n2C)cc1 [Compound 42, 7-chloro-2-(4-methoxyphenoxy)-1-methyl-5-phenyl-1,5-dihydro-4H-imidazo[4,5-c]quinolin-4-one]
Second: COc1ccc(Cc2nc3c(=O)n(-c4cccnc4C4CC4)c4cc(Cl)ccc4c3n2C)cc1 [Compound 24, 7-chloro-5-(2-cyclopropylpyridin-3-yl)-2-(4-methoxybenzyl)-1-methyl-1,5-dihydro-4H-imidazo[4,5-c]quinolin-4-one]
The GI50 of the first is higher: over 1000 nM for the first, 100 to 500 nM for the second.

`Cc1ncccc1-n1c(=O)c2nc(Cc3ccc(F)c(F)c3)n(C)c2c2ccc(Cl)cc21` [Compound 30, 7-chloro-2-(3,4-difluorobenzyl)-1-methyl-5-(2-methylpyridin-3-yl)-1,5-dihydro-4H-imidazo[4,5-c]quinolin-4-one] and `Cc1ncccc1-n1c(=O)c2nc(Sc3ccc(F)cc3F)n(C)c2c2ccc(Cl)cc21` [Compound 39, 7-chloro-2-((2,4-difluorophenyl)thio)-1-methyl-5-(2-methylpyridin-3-yl)-1,5-dihydro-4H-imidazo[4,5-c]quinolin-4-one] cannot be ordered by GI50: under 100 nM for the first, under 100 nM for the second.

For `COc1ccc(Cc2nc3c(=O)n(-c4ccc(OC(F)F)cc4)c4nc(C(F)(F)F)ccc4c3n2C)cc1` [Compound 56, 5-(4-(Difluoromethoxy)phenyl)-2-(4-methoxybenzyl)-1-methyl-7-(trifluoromethyl)-1,5-dihydro-4H-imidazo[4,5-c][1,8]naphthyridin-4-one], the GI50 was over 1000 nM.
